These results are taken from the OligoGym collection.

The target in the series is UBE2N. Description: reporter assay of Huesken 2005. The following applies: siRNA. Background: In a reporter assay the amount or activity of a reporter protein is the signal.

Oligonucleotides are given in HELM: sugar(base)linkage, 5' to 3'; d 2'-deoxyribose, r ribose, m 2'-O-methylribose, p phosphate. ss, as = sense and antisense strand
Also: test concentration or dose not given here.

The substance “RNA1{r(A)p.r(G)p.r(A)p.r(A)p.r(U)p.r(A)p.r(C)p.r(C)p.r(C)p.r(A)p.r(A)p.r(U)p.r(G)p.r(G)p.r(C)p.r(A)p.r(G)p.r(C)p.r(C)p.d(T)p.d(T)}|RNA2{r(G)p.r(G)p.r(C)p.r(U)p.r(G)p.r(C)p.r(C)p.r(A)p.r(U)p.r(U)p.r(G)p.r(G)p.r(G)p.r(U)p.r(A)p.r(U)p.r(U)p.r(C)p.r(U)p.d(T)p.d(C)}$$$RNA1{StrandType:ss}|RNA2{StrandType:as}$” registered a normalised inhibition (eCFP-eYFP dual reporter) of 44.7%.
On to “RNA1{r(C)p.r(U)p.r(A)p.r(G)p.r(A)p.r(U)p.r(A)p.r(U)p.r(U)p.r(U)p.r(U)p.r(G)p.r(A)p.r(A)p.r(A)p.r(G)p.r(A)p.r(U)p.r(A)p.d(T)p.d(T)}|RNA2{r(U)p.r(A)p.r(U)p.r(C)p.r(U)p.r(U)p.r(U)p.r(C)p.r(A)p.r(A)p.r(A)p.r(A)p.r(U)p.r(A)p.r(U)p.r(C)p.r(U)p.r(A)p.r(G)p.d(A)p.d(C)}$$$RNA1{StrandType:ss}|RNA2{StrandType:as}$”, for which the normalised inhibition (eCFP-eYFP dual reporter) was found to be 85.6%.
The value for “RNA1{r(A)p.r(A)p.r(G)p.r(C)p.r(C)p.r(A)p.r(U)p.r(A)p.r(G)p.r(A)p.r(A)p.r(A)p.r(C)p.r(A)p.r(G)p.r(C)p.r(U)p.r(A)p.r(G)p.d(T)p.d(T)}|RNA2{r(C)p.r(U)p.r(A)p.r(G)p.r(C)p.r(U)p.r(G)p.r(U)p.r(U)p.r(U)p.r(C)p.r(U)p.r(A)p.r(U)p.r(G)p.r(G)p.r(C)p.r(U)p.r(U)p.d(G)p.d(G)}$$$RNA1{StrandType:ss}|RNA2{StrandType:as}$” was 90.4%; that for “RNA1{r(G)p.r(G)p.r(U)p.r(C)p.r(C)p.r(C)p.r(C)p.r(A)p.r(G)p.r(C)p.r(A)p.r(C)p.r(U)p.r(G)p.r(C)p.r(A)p.r(G)p.r(A)p.r(U)p.d(T)p.d(T)}|RNA2{r(A)p.r(U)p.r(C)p.r(U)p.r(G)p.r(C)p.r(A)p.r(G)p.r(U)p.r(G)p.r(C)p.r(U)p.r(G)p.r(G)p.r(G)p.r(G)p.r(A)p.r(C)p.r(C)p.d(A)p.d(C)}$$$RNA1{StrandType:ss}|RNA2{StrandType:as}$” was 62.2%.
The value for “RNA1{r(G)p.r(A)p.r(A)p.r(C)p.r(U)p.r(A)p.r(U)p.r(U)p.r(C)p.r(C)p.r(U)p.r(U)p.r(C)p.r(C)p.r(A)p.r(G)p.r(A)p.r(A)p.r(G)p.d(T)p.d(T)}|RNA2{r(C)p.r(U)p.r(U)p.r(C)p.r(U)p.r(G)p.r(G)p.r(A)p.r(A)p.r(G)p.r(G)p.r(A)p.r(A)p.r(U)p.r(A)p.r(G)p.r(U)p.r(U)p.r(C)p.d(A)p.d(A)}$$$RNA1{StrandType:ss}|RNA2{StrandType:as}$” was 87.5%; that for “RNA1{r(A)p.r(A)p.r(G)p.r(C)p.r(C)p.r(C)p.r(A)p.r(A)p.r(G)p.r(C)p.r(C)p.r(A)p.r(U)p.r(A)p.r(G)p.r(A)p.r(A)p.r(A)p.r(C)p.d(T)p.d(T)}|RNA2{r(G)p.r(U)p.r(U)p.r(U)p.r(C)p.r(U)p.r(A)p.r(U)p.r(G)p.r(G)p.r(C)p.r(U)p.r(U)p.r(G)p.r(G)p.r(G)p.r(C)p.r(U)p.r(U)p.d(C)p.d(G)}$$$RNA1{StrandType:ss}|RNA2{StrandType:as}$” was 61.1%; that for “RNA1{r(C)p.r(C)p.r(A)p.r(G)p.r(A)p.r(U)p.r(G)p.r(A)p.r(G)p.r(A)p.r(G)p.r(C)p.r(A)p.r(A)p.r(C)p.r(G)p.r(C)p.r(C)p.r(C)p.d(T)p.d(T)}|RNA2{r(G)p.r(G)p.r(G)p.r(C)p.r(G)p.r(U)p.r(U)p.r(G)p.r(C)p.r(U)p.r(C)p.r(U)p.r(C)p.r(A)p.r(U)p.r(C)p.r(U)p.r(G)p.r(G)p.d(T)p.d(T)}$$$RNA1{StrandType:ss}|RNA2{StrandType:as}$” was 65.8%.
As for “RNA1{r(U)p.r(C)p.r(A)p.r(U)p.r(G)p.r(U)p.r(G)p.r(G)p.r(U)p.r(C)p.r(A)p.r(U)p.r(U)p.r(G)p.r(C)p.r(U)p.r(G)p.r(G)p.r(C)p.d(T)p.d(T)}|RNA2{r(G)p.r(C)p.r(C)p.r(A)p.r(G)p.r(C)p.r(A)p.r(A)p.r(U)p.r(G)p.r(A)p.r(C)p.r(C)p.r(A)p.r(C)p.r(A)p.r(U)p.r(G)p.r(A)p.d(A)p.d(A)}$$$RNA1{StrandType:ss}|RNA2{StrandType:as}$”, the normalised inhibition (eCFP-eYFP dual reporter) was found to be 50.6%.
